# Laboratory results reported in patent US20050197350A1, “Novel quinoline, tetrahydroquinazoline, and pyrimidine derivatives and methods of treatment related to the use thereof” (TAISHO PHARMACEUTICAL CO., LTD., priority 2003, published 2005).
# Test system: MCH receptors
# Assay: MCH receptor activity class (method not given)
# Conditions: MCH receptor; class by percent of control at 10^-7 M or IC50
row,SMILES,class
1,CN(C)c1nc(N[C@H]2CC[C@@H](NC(=S)Nc3ccccc3OC(F)F)CC2)nc2c1CCCC2 [compound 1976],3 (Class 3 The value of percent of control at 10^−7 M was more than 60% or the value of IC50 was more than 200 nM.)
2,CN(C)c1nc(N[C@H]2CC[C@@H](NC(=S)Nc3cc(C(F)(F)F)ccc3F)CC2)nc2c1CCCC2 [compound 1977],3 (Class 3 The value of percent of control at 10^−7 M was more than 60% or the value of IC50 was more than 200 nM.)
3,CN(C)c1nc(N[C@H]2CC[C@@H](NC(=S)Nc3ccccc3F)CC2)nc2c1CCCC2 [compound 1978],3 (Class 3 The value of percent of control at 10^−7 M was more than 60% or the value of IC50 was more than 200 nM.)
4,CN(C)c1nc(N[C@H]2CC[C@@H](NC(=S)Nc3ccccc3I)CC2)nc2c1CCCC2 [compound 1979],3 (Class 3 The value of percent of control at 10^−7 M was more than 60% or the value of IC50 was more than 200 nM.)
5,CN(C)c1nc(N[C@H]2CC[C@@H](NC(=S)Nc3cccc(SC(F)(F)F)c3)CC2)nc2c1CCCC2 [compound 1980],3 (Class 3 The value of percent of control at 10^−7 M was more than 60% or the value of IC50 was more than 200 nM.)
6,CN(C)c1nc(N[C@H]2CC[C@@H](NC(=S)Nc3cc(Cl)cc(Cl)c3)CC2)nc2c1CCCC2 [compound 1981],3 (Class 3 The value of percent of control at 10^−7 M was more than 60% or the value of IC50 was more than 200 nM.)
7,CN(C)c1nc(N[C@H]2CC[C@@H](NC(=S)Nc3cc(F)cc(F)c3)CC2)nc2c1CCCC2 [compound 1982],3 (Class 3 The value of percent of control at 10^−7 M was more than 60% or the value of IC50 was more than 200 nM.)
8,CN(C)c1nc(N[C@H]2CC[C@@H](NC(=S)Nc3cccc(C#N)c3)CC2)nc2c1CCCC2 [compound 1983],3 (Class 3 The value of percent of control at 10^−7 M was more than 60% or the value of IC50 was more than 200 nM.)
9,CN(C)c1nc(N[C@H]2CC[C@@H](NC(=S)Nc3cccc(F)c3)CC2)nc2c1CCCC2 [compound 1984],3 (Class 3 The value of percent of control at 10^−7 M was more than 60% or the value of IC50 was more than 200 nM.)
10,CN(C)c1nc(N[C@H]2CC[C@@H](NC(=S)Nc3cccc(I)c3)CC2)nc2c1CCCC2 [compound 1985],3 (Class 3 The value of percent of control at 10^−7 M was more than 60% or the value of IC50 was more than 200 nM.)
11,COc1cccc(NC(=S)N[C@H]2CC[C@@H](Nc3nc4c(c(N(C)C)n3)CCCC4)CC2)c1 [compound 1986],3 (Class 3 The value of percent of control at 10^−7 M was more than 60% or the value of IC50 was more than 200 nM.)
12,CN(C)c1nc(N[C@H]2CC[C@@H](NC(=S)Nc3ccc(OC(F)F)cc3)CC2)nc2c1CCCC2 [compound 1987],3 (Class 3 The value of percent of control at 10^−7 M was more than 60% or the value of IC50 was more than 200 nM.)
13,CN(C)c1nc(N[C@H]2CC[C@@H](NC(=S)Nc3ccc(OC(F)(F)F)cc3)CC2)nc2c1CCCC2 [compound 1988],3 (Class 3 The value of percent of control at 10^−7 M was more than 60% or the value of IC50 was more than 200 nM.)
14,CN(C)c1nc(N[C@H]2CC[C@@H](NC(=S)Nc3ccc(C(F)(F)F)cc3)CC2)nc2c1CCCC2 [compound 1989],3 (Class 3 The value of percent of control at 10^−7 M was more than 60% or the value of IC50 was more than 200 nM.)
15,CN(C)c1nc(N[C@H]2CC[C@@H](NC(=S)Nc3ccc(SC(F)(F)F)cc3)CC2)nc2c1CCCC2 [compound 1990],3 (Class 3 The value of percent of control at 10^−7 M was more than 60% or the value of IC50 was more than 200 nM.)
16,CN(C)c1nc(N[C@H]2CC[C@@H](NC(=S)Nc3ccc(Br)cc3F)CC2)nc2c1CCCC2 [compound 1991],3 (Class 3 The value of percent of control at 10^−7 M was more than 60% or the value of IC50 was more than 200 nM.)
17,CN(C)c1nc(N[C@H]2CC[C@@H](NC(=S)Nc3ccc(Cl)c(C(F)(F)F)c3)CC2)nc2c1CCCC2 [compound 1992],3 (Class 3 The value of percent of control at 10^−7 M was more than 60% or the value of IC50 was more than 200 nM.)
18,CN(C)c1nc(N[C@H]2CC[C@@H](NC(=S)Nc3ccc(F)c(C(F)(F)F)c3)CC2)nc2c1CCCC2 [compound 1993],3 (Class 3 The value of percent of control at 10^−7 M was more than 60% or the value of IC50 was more than 200 nM.)
19,Cc1ccc(Cl)cc1NC(=S)N[C@H]1CC[C@@H](Nc2nc3c(c(N(C)C)n2)CCCC3)CC1 [compound 1994],3 (Class 3 The value of percent of control at 10^−7 M was more than 60% or the value of IC50 was more than 200 nM.)
20,CN(C)c1nc(N[C@H]2CC[C@@H](NC(=S)NC3CC4CCC3C4)CC2)nc2c1CCCC2 (stereo partly drawn) [compound 1995],3 (Class 3 The value of percent of control at 10^−7 M was more than 60% or the value of IC50 was more than 200 nM.)
21,CN(C)c1nc(N[C@H]2CC[C@@H](NC(=S)Nc3ccc(NC(=O)OC(C)(C)C)cc3)CC2)nc2c1CCCC2 [compound 1996],3 (Class 3 The value of percent of control at 10^−7 M was more than 60% or the value of IC50 was more than 200 nM.)

row,SMILES,class
1,COc1ccc(CCNC(=S)N[C@H]2CC[C@@H](Nc3nc4c(c(N(C)C)n3)CCCC4)CC2)cc1OC [compound 1997],3 (Class 3 The value of percent of control at 10^−7 M was more than 60% or the value of IC50 was more than 200 nM.)
2,CN(C)c1nc(N[C@H]2CC[C@@H](NC(=S)NCCc3ccc(Cl)cc3)CC2)nc2c1CCCC2 [compound 1998],3 (Class 3 The value of percent of control at 10^−7 M was more than 60% or the value of IC50 was more than 200 nM.)
3,CN(C)c1nc(N[C@H]2CC[C@@H](NC(=S)Nc3cc(Cl)c(Cl)c(Cl)c3Cl)CC2)nc2c1CCCC2 [compound 1999],3 (Class 3 The value of percent of control at 10^−7 M was more than 60% or the value of IC50 was more than 200 nM.)
4,CN(C)c1nc(N[C@H]2CC[C@@H](NC(=S)Nc3cc(Cl)c(Cl)cc3Cl)CC2)nc2c1CCCC2 [compound 2000],3 (Class 3 The value of percent of control at 10^−7 M was more than 60% or the value of IC50 was more than 200 nM.)
5,CN(C)c1nc(N[C@H]2CC[C@@H](NC(=S)Nc3c(F)cc(F)cc3F)CC2)nc2c1CCCC2 [compound 2001],3 (Class 3 The value of percent of control at 10^−7 M was more than 60% or the value of IC50 was more than 200 nM.)
6,CC(C)c1cccc(C(C)C)c1NC(=S)N[C@H]1CC[C@@H](Nc2nc3c(c(N(C)C)n2)CCCC3)CC1 [compound 2002],3 (Class 3 The value of percent of control at 10^−7 M was more than 60% or the value of IC50 was more than 200 nM.)
7,CN(C)c1nc(N[C@H]2CC[C@@H](NC(=S)Nc3cc(C(F)(F)F)ccc3Cl)CC2)nc2c1CCCC2 [compound 2003],3 (Class 3 The value of percent of control at 10^−7 M was more than 60% or the value of IC50 was more than 200 nM.)
8,CSc1cccc(NC(=S)N[C@H]2CC[C@@H](Nc3nc4c(c(N(C)C)n3)CCCC4)CC2)c1 [compound 2004],3 (Class 3 The value of percent of control at 10^−7 M was more than 60% or the value of IC50 was more than 200 nM.)
9,CN(C)c1nc(N[C@H]2CC[C@@H](NC(=S)NCc3ccc(Cl)c(Cl)c3)CC2)nc2c1CCCC2 [compound 2005],3 (Class 3 The value of percent of control at 10^−7 M was more than 60% or the value of IC50 was more than 200 nM.)
10,COc1cc(NC(=S)N[C@H]2CC[C@@H](Nc3nc4c(c(N(C)C)n3)CCCC4)CC2)cc(OC)c1 [compound 2006],3 (Class 3 The value of percent of control at 10^−7 M was more than 60% or the value of IC50 was more than 200 nM.)
11,Cc1cc(C)cc(NC(=S)N[C@H]2CC[C@@H](Nc3nc4c(c(N(C)C)n3)CCCC4)CC2)c1 [compound 2007],3 (Class 3 The value of percent of control at 10^−7 M was more than 60% or the value of IC50 was more than 200 nM.)
12,CN(C)c1nc(N[C@H]2CC[C@@H](NC(=S)Nc3cccc(OCc4ccccc4)c3)CC2)nc2c1CCCC2 [compound 2008],3 (Class 3 The value of percent of control at 10^−7 M was more than 60% or the value of IC50 was more than 200 nM.)
13,CN(C)c1nc(N[C@H]2CC[C@@H](NC(=S)Nc3cccc(C(=O)O)c3)CC2)nc2c1CCCC2 [compound 2009],3 (Class 3 The value of percent of control at 10^−7 M was more than 60% or the value of IC50 was more than 200 nM.)
14,Cc1ccc(NC(=S)N[C@H]2CC[C@@H](Nc3nc4c(c(N(C)C)n3)CCCC4)CC2)cc1Cl [compound 2010],3 (Class 3 The value of percent of control at 10^−7 M was more than 60% or the value of IC50 was more than 200 nM.)
15,CN(C)c1nc(N[C@H]2CC[C@@H](NC(=S)NCCCc3ccccc3)CC2)nc2c1CCCC2 [compound 2011],3 (Class 3 The value of percent of control at 10^−7 M was more than 60% or the value of IC50 was more than 200 nM.)
16,CCN(CC)c1ccc(NC(=S)N[C@H]2CC[C@@H](Nc3nc4c(c(N(C)C)n3)CCCC4)CC2)cc1 [compound 2012],3 (Class 3 The value of percent of control at 10^−7 M was more than 60% or the value of IC50 was more than 200 nM.)
17,CCOC(=O)c1ccc(NC(=S)N[C@H]2CC[C@@H](Nc3nc4c(c(N(C)C)n3)CCCC4)CC2)cc1 [compound 2013],3 (Class 3 The value of percent of control at 10^−7 M was more than 60% or the value of IC50 was more than 200 nM.)
18,CN(C)c1nc(N[C@H]2CC[C@@H](NC(=S)NCc3ccc(F)cc3)CC2)nc2c1CCCC2 [compound 2015],3 (Class 3 The value of percent of control at 10^−7 M was more than 60% or the value of IC50 was more than 200 nM.)
19,CC(C)c1ccc(NC(=S)N[C@H]2CC[C@@H](Nc3nc4c(c(N(C)C)n3)CCCC4)CC2)cc1 [compound 2016],3 (Class 3 The value of percent of control at 10^−7 M was more than 60% or the value of IC50 was more than 200 nM.)
20,COc1ccc(NC(=S)N[C@H]2CC[C@@H](Nc3nc4c(c(N(C)C)n3)CCCC4)CC2)c([N+](=O)[O-])c1 [compound 2017],3 (Class 3 The value of percent of control at 10^−7 M was more than 60% or the value of IC50 was more than 200 nM.)
21,COc1ccc(CNC(=S)N[C@H]2CC[C@@H](Nc3nc4c(c(N(C)C)n3)CCCC4)CC2)cc1 [compound 2018],3 (Class 3 The value of percent of control at 10^−7 M was more than 60% or the value of IC50 was more than 200 nM.)
